# Assay results from patent US7125848B2, “Methods of treating non-inflammatory gastrointestinal tract disorders using Cav2.2 subunit calcium channel modulators” (Dynogen Pharmaceuticals, Inc., priority 2003, dated 2006).
# System: HVA calcium channel currents in GI tract afferent DRG neurons
# Format: cell-based, rat
substance,measurement,value
Omega-conotoxin GVIA (CKSHYPGSSCSHYPTSYNCCRSCNHYPYTKRCY; VARIANT (0)...(0) omega-conotoxin GVIA; listed as Conus geographus),calcium current amplitude as percentage of control amplitudes,59±4%
